Holding throughout (assay type): in vivo
The nature of data set [1]: Pharmacokinetic study in mice, oral (brain and blood levels by LC/MS/MS). The settings on record: male, mouse, C57BL/6 mice, oral 10 mg/kg, brain.
Data set [2] in a line: Distribution of C1 in brain regions, plasma and CSF of rats 30 min after oral dosing. The following applies: Sprague-Dawley, rat, SD rats, 30 min after oral 10 mg/kg. As to the method:
Male C57BL/6 mice and Sprague Dawley rats were purchased from Chinese University of Hong Kong, acclimatized in Hong Kong Baptist university animal house for 2 weeks. Animals were kept for 18 h fasting before the experiment. Curcumin analog C1 and curcumin were suspended in 1% CMC-Na at 10 mg/kg, given to animals through oral route at 10 ml/kg dosing volume. Blood (by heart puncture) and brain samples were collected starting from 0.25, 0.5, 1, 2, 4, 6, 8, 12 and 24 h time points (n=3 for each time point) under chloral hydrate anesthesia at 500 mg/kg (I.P. injection). Based on mice pharmacokinetic study, rat blood, brain and cerebrospinal fluids (CSF) were collected at 30 minutes time point (n=4). All blood samples were collected in heparinized tubes. Plasma was collected by centrifuging at 10,000 rpm for 10 minutes at 4° C. Blood, brain and CSF were stored in −80° C. until further analysis.
Cerebrospinal fluid (CSF) was collected by puncturing Cisterna Magna. Briefly, stereotaxic apparatus (Stoelting, Wood Dale, USA) was used for CSF collection. The tip of CSF collection needle (21G) was placed at the center of stereotaxic apparatus ear bars contact and considered it as zero point. Then rats were anaesthetized with chloral hydrate at 500 mg/kg in saline through intra-peritoneal route. Rats were fixed on the stereotaxic apparatus with 3 cm elevated body position. Rat head was positioned at nearly 110° angle between stereotaxic apparatus frame and rat nose. Cisterna magna location was identified by a 3 mm^2 depressed area between the spine and occipital protuberance in mid-sagittal plane, at 10-12 mm approximate distance from ear. The collection needle was inserted into the Cisterna magna from zero point at A−P: −1.5±1 mm, M−L: 0 mm and D−V: not more than 4-6 mm (from the skin surface). The needle was connected to a 1 ml syringe through a silicon tube. By applying a gentle negative pressure through 1 ml syringe, 100 μl of CSF without any blood contamination was collected.
Whole brain and brain parts were homogenized with 2 weight/volumes of PBS (pH=3.2), spiked with 10 μl of internal standard salbutamol (200 ng/ml in methanol). The homogenate was liquid-liquid extracted with 1 ml of ethyl acetate. 50 μl of 0.5M sodium hydroxide was added to the brain homogenate for efficient C1 extraction. After vigorous sonication and vortex mixing, samples were centrifuged at 15,000 RPM for 10 min. The supernatant was collected and vacuum dried. The samples were reconstituted with 100 μl of mobile phase (0.1% formic acid in acetonitrile), vortex mixed and transferred to an amber colored sampler vial with plastic insert.
100 μl of plasma and CSF was mixed with 100 μl of PBS (pH=3.2), 10 μl of 0.05 M sodium hydroxide and spiked with 10 μl of salbutamol (200 ng/ml in methanol). The mixture was liquid-liquid extracted with 500 μl of ethyl acetate. After vigorous sonication and vortex mixing, samples were centrifuged at 15,000 RPM for 10 min at 4° C. The supernatant was collected and vacuum dried. The samples were reconstituted with 100 μl of mobile phase (0.1% formic acid in acetonitrile), vortex mixed and transferred to an amber colored sampler vial with plastic insert.
UPLC 1290 (Agilent technologies, CA, USA) with binary pump, autosampler system, column with thermostat, vacuum degasser and 6460 QQQ Mass spectrometer was used for compound detection. Chromatographic separation was achieved by waters BEH-C18 (1.7 μm, 2.1×50 mm) column maintained at 40° C. […]

In data set [3] the test system is 3×Tg mice. Briefly: Morris-water maze. Here is the method:
Homozygous 3×Tg mice (APP KM670/671NL (Swedish), MAPT P301L, PSEN1 M146V) were produced in Hong Kong Baptist University animal house and maintained at 23±2° C. temperature, 60±15% relative humidity with free access to food and water ad libitum. Seven months old WT (129/SvJ, n=6 for male mice; n=10 for female mice) and 3×Tg mice (n=6 for male mice; n=10 for female mice) were treated daily with vehicle (1% CMC-Na; Sigma-Aldrich, C5678]), curcumin analogue C1 (2.5 mg/kg, 5 mg/kg, 10 mg/kg) or curcumin (50 mg/kg; Sigma-Aldrich, 08511) suspended in 1% CMC-Na by oral gavage for 7 months. 3×Tg mice were treated with the indicated compounds for 7 months and Morris-water maze (MWM) was used to evaluate the spatial learning memory. MWM is a circular water (21±1° C.) container with 1 meter diameter. Animals were pre-quarantined and acclimatized to the experimenting room at least 1 week before the start of the experiment. The experiment was started with one day visual platform trial. Each mouse underwent 4 visible platform trails (each trial 60 seconds) with different platform placement, positioned above the water level. Hidden platform training was conducted after mixing a non-toxic paint in the water. Mice were trained for 6 continuous days, each day composed of different session with 4 hidden platform trials (each trial 60 seconds). Each session was designed with randomized animal introduction pattern into the water maze with unchanged platform position. Each trial was conducted with 30 min inter-trial interval and provided with external cues. To assess the long term spatial memory retrieval a probe trial (60 seconds) was conducted 24 h after the last training session. During probe trial water maze was divided into 4 quadrants. The hidden platform in the target quadrant was removed after determining its location. Ethnovision XT software was used to observe and record the swimming pattern. During hidden platform training sessions, time spent to find the platform was taken as a parameter to evaluate memory acquisition. In probe trial percentage of time spent in the target quadrant compared to the other 3 quadrants was calculated.

Read-outs that look alike come from different tables or passages of the source.

In the case of `COc1ccccc1/C=C/C(=O)/C=C/c1ccccc1OC` [Compound C1, 1,5-bis(2-methoxyphenyl)penta-1,4-dien-3-one], the Tmax in data set [1] is 30 min. For the same compound, in data set [1] (read-out: maximum concentration (Cmax) in the brain), the Cmax was found to be 1310 ± 89 ng/g. In addition, the concentration at 30 min in data set [2] (cerebrospinal fluid, read-out: level of C1 in CSF) was 102 ± 52.4 ng/mL; in data set [2] (frontal cortex, read-out: concentration of C1 in the frontal cortex) it was 58 ± 18.6 ng/g; in data set [2] (hippocampus, read-out: concentration of C1 in the hippocampus), 68.4 ± 21.7 ng/g; in data set [2] (plasma, read-out: level of C1 in plasma), 352 ± 21.4 ng/mL; in data set [2] (striatum, read-out: concentration of C1 in the striatum) it was 4.69 ± 2.19 ng/g. Besides, the “percentage of time spent in the target quadrant, probe trial, vs vehicle” value in data set [3] (2.5 mg/kg oral 7 months), in data set [3] (5 mg/kg oral 7 months) and in data set [3] (10 mg/kg oral 7 months) was “significantly increased” in each case. Moreover, in data set [3] (10 mg/kg oral 7 months), the “distance traveled to find the hidden platform vs vehicle” value is “significantly reduced”. Moreover, the “target recognition compared with curcumin” value in data set [3] (C1 10 mg/kg vs curcumin 50 mg/kg) is listed as “much better improvement in target recognition than curcumin”.

Source of the values: patent publication US10987319B2, “TFEB activator C1 ameliorates app and tau pathology and rescues cognitive deficits in neurodegenerative diseases” (Hong Kong Baptist University, priority 2018, dated 2021).
